Data reported in patent publication US6787161B2, “Anti-cancer compounds” (Peplin Biotech Pty. Ltd., priority 1997, dated 2004).

Experiments:
[1] = tested on: MM96L cells; assay: Effect of betaines on MM96L cell numbers; format: cell-based, human; design: key to cell numbers rating and morphology: +++ = no effect; − = complete cell death; *d = indicates change to dendritic morphology of the cells; conditions: 4 days
Experimental: Betaines of different types were solubilised in sterile MilliQ™ water to a final concentration of 1 mg/ml, and diluted into 0.1 ml tissue culture medium containing 5000 MM96L cells as described previously. Cells were scored after 4 days incubation.

[2] = tested on: MM96L melanoma cell line; assay: MM96L assay of chromatographic fractions (cell inhibition, reversion to dendritic appearance); format: cell-based, human; conditions: at 1 in 5×10^6 dilution
Experimental: Fractions were dried by vacuum centrifugation, reconstituted in 500 μl PBS, and assayed against MM96L cells and in the metallothionein reporter assay as described above. Fractions 13 to 28 all induced complete reversion of MM96L cells to a dendritic appearance, but cell death was not observed. The effect was much more striking in the reporter assay, in which activity was still observed at a dilution of 1/10,000 (i.e. at a final concentration in the culture of 1/100,000).
Fractions 14 and 15 from the HPLC subfractionation described in Example 7 and FIG. 3 were further purified by repeated chromatography, selecting the dominant symmetrical peak with constant diode array spectra (e.g. fractions 14 and 15; results for fraction 14 are shown in FIGS. 4 and 5). Activity of the purified fractions in causing reversion of MM96L to the dendritic appearance was confirmed by cell assay.
(a) The ether-soluble fraction, prepared as in Example 7, was reconstituted in ethylene glycol dimethyl ether (DME) and chromatographed on 20×20 cm silica gel plates, using chloroform:ethyl acetate (82:18) as the developing solvent (FIG. 7). The plate was viewed on a UV light box and the UV positive bands were identified, excised from the gel, eluted with DME, and tested for inhibitory activity and morphology reversal against MM96L melanoma cell line. […]

| Compound | final concentration at which cell numbers were depressed or inhibited [1] [µg/mL] | cell numbers rating and morphology ([1]; dilution 1/50 of 1 mg/ml) | cell numbers rating and morphology ([1]; dilution 1/500 of 1 mg/ml) | cell numbers rating and morphology ([1]; dilution 1/5,000 of 1 mg/ml) | final concentration active in reversion to complete dendritic morphology [2] [ng/ml] |
| --- | --- | --- | --- | --- | --- |
| C[N+](C)(C)CCC(=O)O.[Cl-] [β-alanine betaine hydrochloride] | 20 | ++d | +++ | +++ | – |
| CN1C[C@@H](O)C[C@@H]1C(=O)O [t-4-hydroxy N-methyl proline, free base, t-4-hydroxy N-methyl proline] | – | +++ | +++ | +++ | – |
| C[N+]1(C)CCC[C@H]1C(=O)[O-] [stachydrine (proline betaine), free base, stachydrine (proline betaine)] | – | +++ | +++ | +++ | – |
| 20-acetyl-ingenol-3-angelate | – | – | – | – | 1 |
| C[N+]1(C)C[C@H](O)C[C@H]1C(=O)[O-] [t-4 hydroxy N,N-dimethyl proline] | 20 | +pd | +++ | +++ | – |
| CN1CCC[C@H]1C(=O)O [N-methyl proline, free base, N-methyl proline] | – | +++ | +++ | +++ | – |
| CN1CC[C@@H](O)[C@@H]1C(=O)O [t-3-hydroxy N-methyl proline, free base, t-3-hydroxy N-methyl proline] | – | +++ | +++ | +++ | – |
| C[N+](C)(C)CC(=O)[O-] [glycine betaine] | – | +++ | +++ | +++ | – |
